Measured values as given in patent US20220145303A1, “FRAGILE X MENTAL RETARDATION PROTEIN INTERFERING OLIGONUCLEOTIDES AND METHODS OF USING SAME” (Nogra Pharma Limited, priority 2019, published 2022).

Key:
Assay type in all cases: cell-based, human
FMRP = FMRP knockdown: Western blot of FMRP after transfection with FMRP antisense or sense oligonucleotide; conditions: 48 hours, AS 0.5-100 nM, S 100 nM
Protocol: Total proteins were extracted from mouse colonic tissues, and lysed on ice in buffer containing 10 mM HEPES [pH 7.9], 10 mM KCl, 0.1 mM EthyleneDiamineTetraacetic Acid (EDTA), 0.2 mM Ethylene Glycol-bis (β-aminoethyl ether)-N,N,N′,N′-Tetraacetic Acid (EGTA) and 0.5% Nonidet P40 supplemented with 1 mM dithiothreitol (DTT), […], […], 1 mM phenylmethylsulfonyl fluoride (PMSF), 1 mM Na3VO4, and 1 mM NaF. Lysates were clarified by centrifugation and separated on sodium dodecyl sulphate (SDS)-polyacrylamide gel electrophoresis. Blots were incubated with antibodies against: FMRP (Cell Signaling, Danvers, Mass.), followed by a secondary antibody conjugated to horseradish peroxidase (Dako, Milan, Italy). After analysis, each blot was stripped and incubated with a mouse-anti-human monoclonal β-actin antibody (Sigma-Aldrich) to ascertain equivalent loading of the lanes.
Human CRC cell lines, DLD-1 and HCT-116, were obtained from the American Type Culture Collection (ATCC, Manassas, Va.) and cultured in RPMI 1640 (DLD-1) and McCoy's 5A (HCT-116) medium, respectively. All media were supplemented with 10% fetal bovine serum, 1% penicillin/streptomycin (both from Lonza, Verviers, Belgium). The normal human colon epithelial cell line (HCEC-1ct) was obtained from EVERCYTE GmbH (Vienna, Austria) and cultured in ColoUp® medium (EVERCYTE GmbH). Cells were maintained in a 37° C., 5% CO2, fully humidified incubator. Cell line lysates were prepared and analyzed by SDS-polyacrylamide gel electrophoresis/immunoblot using methods as previously described in Example 2. For immunofluorescent staining, cell lines were fixed with 3.7% formaldehyde for 10 minutes at 4° C., permeabilized with 0.1% Triton for 10 minutes at room temperature and blocked (1% bovine serum albumin, Tween 0.1%, glycine 2%) for 1 hour at room temperature. Fixed and blocked cells were incubated with anti-FMRP monoclonal antibody (1:500, Cell Signaling, Danvers, Mass.) overnight at 4° C. After washing with PBS, secondary antibody goat anti-rabbit Alexa 488 (1:2000, A11008; Invitrogen) was applied for 1 hour at room temperature. Slides were washed with PBS, mounted using Prolong Gold® anti-fade reagent with 4′,6-diamidino-2-phenylindole (P36931; Invitrogen) and analyzed by a Leica DMI4000 B microscope with Leica application suite software (V4.6.2).
Phosphorothioate single-stranded antisense oligonucleotides complementary to human FMRP [5′-[…]-3′ (SEQ ID NO: 6)] and single-stranded sense oligonucleotides [5′-[…]-3′ (SEQ ID NO: 15)] were synthesized. CRC cell lines and HCEC-1ct cells were transfected with either FMRP antisense (AS)(final concentration 0.5-100 nM) or FMRP sense oligonucleotide (S) (final concentration100 nM) for 24 and 48 hours, using Opti-MEM medium and lipofectamine 3000 reagent (Thermo Fisher Scientific, Waltham, Mass., USA) according to the manufacturer's instructions.

E-cadherin = assay: Western blot of E-cadherin in HCT-116 cells; conditions: HCT-116, AS 0.5 nM, 48 hours, vs untreated or sense, FIGS. 8E, 8F
Protocol: (§1) To determine whether FMRP regulates levels of E-cadherin and/or β-catenin, key proteins associated with cellular adhesion, cytoskeletal remodeling, and inhibition of tumor migration and invasion, cells were left untreated (U), or transfected with either FMRP sense (S) oligonucleotide (final concentration 0.5 nM) or FMRP antisense (AS) oligonucleotide (final concentration 0.5 nM) for 48 hours.
(§2) Recent studies have described a novel tumor suppressor function of MCC in the regulation of E-cadherin/β-catenin complex-mediated cell-cell adhesion in colorectal cells. To investigate whether MCC mediates the observed increase of E-cadherin and β-catenin expression in HCT-116 cells transfected with antisense FMRP oligonucleotide (e.g., FIGS. 8E-8G), cells were left untreated (U) or transfected with sense FMRP oligonucleotide (final concentration 0.5 nM), or antisense FMRP oligonucleotide (final concentration 0.5 nM), and/or control siRNA (siRNA Ctrl) or siRNA specific for MCC (siRNA MCC) for 48 hours.

β-catenin = assay: Western blot of β-catenin in HCT-116 cells; conditions: HCT-116, AS 0.5 nM, 48 hours, vs untreated or sense, FIGS. 8E, 8G
Protocol: as §1, §2

caspase 8 = assay: Activated caspase 8 by flow cytometry in CRC cells; conditions: oligonucleotide 100 nM 36 hours, FIGS. 4A, 4B
Protocol: (§3) Cells were transfected with either FMRP antisense oligonucleotide (AS)(final concentration 0.5 nM and 100 nM) or FMRP sense oligonucleotide (S)(final concentration 100 nM). After 24 hours (FIGS. 3E, 3F, 3J and 3K) or 48 hours (FIG. 3H), cells were collected, washed two times in Annexin V (AV) buffer, stained with FITC-AnnexinV (final dilution 1:100; Immunotools, Friesoythe, Germany) according to the manufacturer's instructions, and incubated with […] of propidium iodide (PI) for 30 min at 4° C. Cells were also transfected with either FMRP sense oligonucleotide or FMRP AS oligonucleotide (final concentration 100 nM) for 36 hours and analyzed for activated caspase 3 and caspase 8. As positive and negative controls, cells were treated, respectively, with staurosporin (final concentration 1 μM, Sigma-Aldrich Milan, Italy) or Q-VD-OPh (a pan-caspase inhibitor; final concentration 1 μM) (R&D Systems, Inc, Minneapolis, Minn.). Additionally, 36 hours (FIGS. 4F and 4G) or 48 hours post-transfection (FIGS. 4D and 4E), cells were pulsed with […] bromodeoxyuridine for 60 minutes, fixed in 70% cold ethanol, and stored at −20° C. for at least 3 hours. […] Fluorescence was measured using Gallios Flow Cytometer (Beckman Coulter, Life Sciences, Pasadena, Calif., USA) and analyzed using Kaluza software (Beckman Coulter). […]

DLD-1 cells = assay: Cell death by AnnexinV/PI flow cytometry in DLD-1 cells; conditions: 24 hours, AS 0.5 nM and 100 nM, FIGS. 3E, 3F
Protocol: as §3

“5′-TCCACCACCAGCTCCTCCAT-3′ (all phosphorothioate, sugars by position and methylation of C not given here) [FMRP antisense oligonucleotide, Phosphorothioate single-stranded antisense oligonucleotides complementary to human FMRP]” was tested, and the FMRP expression (FMRP; DLD-1 cells, FIG. 3D) was “significantly inhibited FMRP expression”, the FMRP expression (FMRP; HCEC-1ct cells, FIG. 3I) was “significantly inhibited FMRP expression” and the FMRP expression (FMRP; HCT-116 cells, FIG. 3G) was “significantly inhibited FMRP expression”. The E-cadherin protein expression (E-cadherin) was “significantly increased”, the β-catenin protein expression (β-catenin) was “significantly increased” and the “percentage of activated caspase 8-positive cells” value (caspase 8) was “did not alter”. The “number of AnnexinV+ or AnnexinV+ PI+ cells” value (DLD-1 cells) was “increased number of AnnexinV^+ or AnnexinV^+ Pt cells”.
